Assay in all cases: NCI anticancer screen, dose series, 48 h
The test system of test [1] is COLO 205 colon.
For test [2], the system named is HOP-92 NSCLC.
The test system of test [3] is M14 melanoma.
Test [4] deals with NCI-H23 lung.
For test [5], the system named is NCI-H460 lung.
Test [6] deals with OVCAR-8 ovarian.
Test [7] relates to SF-268 CNS.
Test [8] deals with SK-MEL-5 melanoma.
Test [9] concerns U251 CNS.
Test [10] has as its system EKVX NSCLC.

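Cultured in 96-well plates, cells were exposed to test compound for 48 hours across five concentrations. GI50 = concentration required for 50% inhibition of growth. The concentration for full growth arrest is given as TGI.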

Regarding `CC(=O)Oc1ccccc1C(=O)N=C1[Se]CCN1C(=O)c1ccccc1OC(C)=O`, the GI50 was 1.84 µM in [1]; 1.85 µM in test [2]; 0.523 µM in test [3]; 1.56 µM in test [4]; 0.379 µM in [5]; 0.637 µM in [6]. In addition, the GI50 in [7] is 0.483 µM; in test [8] it was 0.566 µM; in test [9], 0.734 µM. In addition, the TGI in test [1] is 4.07 µM; in test [2], 3.58 µM; in test [3], 2.2 µM; in [4] it was 5.43 µM; in [5], 2.06 µM; in [6] it was 2.7 µM. The values for the TGI in test [7], in [8] and in [9] were 1.79 µM, 2.05 µM and 2.18 µM, respectively.
For the compound `O=C(CSc1nnc(-c2ccccc2NC(=O)C(F)(F)F)c(=O)[nH]1)NC(=O)Nc1ccccc1`, the TGI in [1], in [10], in test [2], in test [3], in test [4] and in [5] was over 100 µM in each case. For the same compound, the TGI in test [6], in test [7] and in test [9] was over 100 µM each time.
In the case of `CCOC(=O)c1[nH]c(COC(C)=O)c(CCCOC(C)=O)c1CCCOC(C)=O`, the TGI in test [1], in test [10], in test [2], in [4], in test [5] and in test [6] was over 100 µM throughout. Moreover, the TGI in test [7] and in test [9] was over 100 µM in each case.
Regarding `COc1ccc(-c2cc(-c3cccn3C)c(C#N)c(N)n2)cc1OC`, the GI50 in test [1] was over 100 µM; in test [10] it was over 100 µM; in test [2] it was 5.16 µM; in [4], over 100 µM; in test [5] it was over 100 µM; in [6], over 100 µM. For the same compound, the figures for the GI50 in test [7], in [8] and in test [9] were 82.4 µM, over 100 µM and over 100 µM, respectively. In addition, the TGI in test [1], in test [10], in test [2], in test [4], in [5] and in test [6] was over 100 µM each time. Besides, the TGI in test [7], in test [8] and in test [9] was over 100 µM each time.
In the case of `CCOC(=O)CCc1c(C)c2c(OC(C)=O)cc(OC(C)=O)cc2oc1=O`, the TGI in [1] was over 100 µM; in test [10], over 100 µM; in [2], over 100 µM; in test [3], over 100 µM; in test [4], over 100 µM; in [5] it was 91.1 µM. The TGI in test [6] was over 100 µM; in test [7] it was 77.4 µM; in [9], over 100 µM.
`CCN(CC)CCNCC(=O)Oc1ccc(/C=C/C(=O)CC(=O)/C=C/c2ccc(OC(=O)CNCCN(CC)CC)c(OC)c2)cc1OC`: the GI50 in test [1] is 5.06 µM; in test [10], 2.01 µM; in test [2] it was 3.93 µM; in [3], 2.82 µM; in test [5], 3.41 µM; in test [6], 3.69 µM. For the same compound, the figures for the GI50 in test [7], in test [8] and in test [9] were 3.68 µM, 2.57 µM and 3.83 µM, respectively. In addition, the TGI in test [1] was 22.8 µM; in [10], 5.4 µM; in [2], 33.1 µM; in test [3], 11 µM; in [5] it was 22.2 µM; in test [6], 15 µM. Moreover, the values for the TGI in test [7], in test [8] and in test [9] were over 100 µM, 9.65 µM and 16.2 µM, respectively.
For the compound `CCOC(=O)C1=C(C)N(N)C(=S)NC1c1ccc(C)cc1` (configuration not stated), the GI50 was 33.5 µM in test [1]; 0.932 µM in test [2]; 27.5 µM in test [3]; 63.9 µM in [4]; 24.4 µM in test [5]; over 100 µM in test [6]. The GI50 in test [7] is 67 µM; in test [8] it was 13.1 µM; in test [9] it was 24.1 µM. Also, the TGI in test [1], in [2], in [3], in test [4], in test [5] and in test [6] was over 100 µM each time. The values for the TGI in [7], in [8] and in test [9] were over 100 µM, 30.4 µM and over 100 µM, respectively.
`O=C(/C=C/c1c(O)ccc2ccccc12)c1ccc2ccccc2c1`: the TGI in test [1], in test [10], in [2], in [4], in [5] and in test [6] was over 100 µM each time. Also, the TGI in [7] and in [9] was over 100 µM each time.
As for `CN1CCc2c(Sc3ccc(C(=O)NO)cc3)c3ccccc3n2C1`, the GI50 in test [1] was 1.92 µM; in [2], 2 µM; in test [3], 1.81 µM; in [4], 1.7 µM; in test [5], 2.34 µM; in test [6] it was 1.69 µM. The GI50 in test [7] was 1.85 µM; in test [8], 2.39 µM; in test [9] it was 1.6 µM. For the same compound, the TGI came out at 4.52 µM in test [1]; 6.88 µM in [2]; 4.53 µM in test [3]; 3.88 µM in [4]; 7.73 µM in [5]; 5.42 µM in test [6]. For the same compound, the results for the TGI in test [7], in test [8] and in test [9] were 4.31 µM, 6.67 µM and 3.29 µM, respectively.
In the case of `Nc1nc(Nc2ccccc2)c2ncn(Cc3cc4c(cc3Br)OCO4)c2n1`, the GI50 in test [1] was 0.0716 µM; in test [10] it was under 0.0276 µM; in test [2], 0.0651 µM; in [4] it was 0.0187 µM; in test [5] it was 0.0304 µM; in test [6] it was 0.17 µM. The GI50 in test [7] is 0.128 µM; in test [8] it was 0.0485 µM; in test [9], 0.12 µM. Moreover, the TGI is 0.375 µM in [1]; over 100 µM in [10]; 20.7 µM in test [2]; over 100 µM in test [4]; 17.6 µM in [5]; 0.832 µM in test [6]. For the same compound, the TGI in [7] was 45.3 µM; in [8], 0.278 µM; in test [9], 1.45 µM.
